The text below walks through data of US12252488B2 (Nimbus Saturn, Inc., priority 2021, dated 2025).

Molecules are shown by their SMILES. Some results are limits rather than exact numbers.

The target of the test is T1, HPK1 (Homo sapiens, UniProt Q92918).
T1 construct: purchased Invitrogen
T1 sequence (Q92918 whole entry): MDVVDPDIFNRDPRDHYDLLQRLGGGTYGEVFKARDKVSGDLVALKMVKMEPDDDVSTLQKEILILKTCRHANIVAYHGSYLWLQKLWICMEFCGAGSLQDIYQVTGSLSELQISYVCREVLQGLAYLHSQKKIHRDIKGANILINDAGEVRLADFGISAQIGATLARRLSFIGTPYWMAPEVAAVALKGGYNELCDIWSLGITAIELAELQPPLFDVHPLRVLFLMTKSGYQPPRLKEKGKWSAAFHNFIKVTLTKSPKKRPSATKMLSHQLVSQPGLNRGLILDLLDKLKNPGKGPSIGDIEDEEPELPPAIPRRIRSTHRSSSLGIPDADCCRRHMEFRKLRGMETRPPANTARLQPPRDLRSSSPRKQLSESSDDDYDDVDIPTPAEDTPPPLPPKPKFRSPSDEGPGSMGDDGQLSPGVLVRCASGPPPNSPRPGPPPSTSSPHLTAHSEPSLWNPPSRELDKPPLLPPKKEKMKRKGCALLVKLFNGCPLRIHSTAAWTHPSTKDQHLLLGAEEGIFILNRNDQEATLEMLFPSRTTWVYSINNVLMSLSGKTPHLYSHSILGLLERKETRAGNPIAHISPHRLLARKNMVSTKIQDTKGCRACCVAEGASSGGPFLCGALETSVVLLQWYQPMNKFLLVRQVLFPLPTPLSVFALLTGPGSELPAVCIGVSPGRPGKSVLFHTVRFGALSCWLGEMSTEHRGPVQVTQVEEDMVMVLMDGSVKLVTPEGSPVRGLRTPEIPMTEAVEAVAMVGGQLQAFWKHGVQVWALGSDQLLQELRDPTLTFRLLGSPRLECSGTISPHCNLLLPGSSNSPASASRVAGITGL
The test is described as follows: HPK1 biochemical enzyme assay (microfluidic mobility shift assay). The note with it: 1000 uM (1 mM) ATP; Caliper mobility shift; 1.5 nM HPK1; 30 min preincubation; read-out: HPK1 1000UMATP caliper IC50. On the procedure:
Example 33. HPK1 Biochemical Enzyme Assay
HPK1 biochemical enzyme assay: HPK1 enzyme inhibition was measured using a microfluidic mobility shift assay. Reactions were performed in a 384-well plate, containing 1.5 nM HPK1 (Invitrogen), in assay buffer (Carna Biosciences; pH 7.4). Test compounds were titrated in ten point curves (top final assay concentration 3 μM), and preincubated with enzyme/substrate mix for 30 min prior to initiation of the reaction by addition of ATP (1 mM final concentration) and substrate (1 μM final concentration; Carna Biosciences) diluted in assay buffer supplemented by MgCl2 (final assay concentration of 5 mM). Following 60 min incubation at RT, the reaction was terminated by addition of 60 μl/well termination buffer (Carna Biosciences) and signal determination using a Caliper EZ Reader (Perkin Elmer, UK).
The compound numbers correspond to the compound numbers in Table 1. Compounds having an activity designated as “A” provided an IC50≤100 nM; compounds having an activity designated as “B” provided an IC50>100 nM and ≤1,000 nM; compounds having an activity designated as “C” provided an IC50>1,000 nM.
What is called IC50 is the point on the concentration scale where inhibition reaches its midpoint. As for `CS(=O)(=O)Cc1ccc(Nc2cc(-c3c(F)cccc3F)nc3cc[nH]c(=O)c23)nc1` [I-30, 2-(2,6-difluoro-phenyl)-4-[[5-(methyl-sulfonyl-methyl)-2-pyridyl]amino]-6H-1,6-naphthyridin-5-one], the half-inhibitory concentration (IC50) lay in the range of 100 to 1000 nM.
Next, `CC(C)c1cc(Nc2ccc(S(=O)(=O)N3CCCCC3)cn2)c2c(=O)[nH]ccc2n1` [I-31, 2-isopropyl-4-[[5-(1-piperidyl-sulfonyl)-2-pyridyl]amino]-6H-1,6-naphthyridin-5-one]: 100 to 1000 nM; `CCC(CC)c1cc(Nc2ccc(N3CCC(O)CC3)cn2)c2c(=O)[nH]ccc2n1` [I-32, 2-(1-ethylpropyl)-4-[[5-(4-hydroxy-1-piperidyl)-2-pyridyl]amino]-6H-1,6-naphthyridin-5-one]: 100 to 1000 nM.
Next, `N#Cc1c[nH]c(=O)c2c(Nc3ccc(N4CCC(O)CC4)cn3)cc(-c3c(F)cccc3F)nc12` [I-33, 2-(2,6-difluorophenyl)-4-[[5-(4-hydroxy-1-piperidyl)-2-pyridyl]amino]-5-oxo-6H-1,6-naphthyridine-8-carbonitrile]: 100 to 1000 nM; `O=c1[nH]ccc2nc(C3CCNCC3)cc(Nc3ccc(N4CCC(O)CC4)cn3)c12` [I-34, 4-[[5-(4-hydroxy-1-piperidyl)-2-pyridyl]amino]-2-(4-piperidyl)-6H-1,6-naphthyridin-5-one]: 100 to 1000 nM.
Next, `O=c1[nH]ccc2nc(C3CC4CCC3C4)cc(Nc3ccc(N4CCC(O)CC4)cn3)c12` (stereo not drawn) [I-35, 4-[[5-(4-hydroxy-1-piperidyl)-2-pyridyl]amino]-2-norbornan-2-yl-6H-1,6-naphthyridin-5-one]: 100 to 1000 nM.
Consider `O=c1[nH]ccc2nc(C3CCOCC3)cc(Nc3ccc(N4CCC(O)CC4)cn3)c12` [I-36, 4-[[5-(4-hydroxy-1-piperidyl)-2-pyridyl]amino]-2-tetrahydropyran-4-yl-6H-1,6-naphthyridin-5-one], for which the IC50 was no more than 100 nM.
With `CC(O)c1cc(Nc2ccc(N3CCC(O)CC3)cn2)c2c(=O)[nH]ccc2n1` (stereo not drawn) [I-37, 2-(1-hydroxyethyl)-4-[[5-(4-hydroxy-1-piperidyl)-2-pyridyl]amino]-6H-1,6-naphthyridin-5-one] the figure was 100 to 1000 nM; with `CC(C)(O)c1cc(Nc2ccc(N3CCC(O)CC3)cn2)c2c(=O)[nH]ccc2n1` [I-38, 2-(1-hydroxy-1-methyl-ethyl)-4-[[5-(4-hydroxy-1-piperidyl)-2-pyridyl]amino]-6H-1,6-naphthyridin-5-one], no more than 100 nM; with `O=C(O)c1c[nH]c(=O)c2c(Nc3ccc(N4CCC(O)CC4)cn3)cc(-c3c(F)cccc3F)nc12` [I-39, 2-(2,6-difluorophenyl)-4-[[5-(4-hydroxy-1-piperidyl)-2-pyridyl]amino]-5-oxo-6H-1,6-naphthyridine-8-carboxylic Acid], greater than 1000 nM.
With `O=c1[nH]ccc2nc(C3CC4CCC3C4)cc(Nc3ccc(N4CCC(O)CC4)cn3)c12` (stereo not drawn) [I-40, 4-[[5-(4-hydroxy-1-piperidyl)-2-pyridyl]amino]-2-norbornan-2-yl-6H-1,6-naphthyridin-5-one] the figure was 100 to 1000 nM; with `COc1ccc(F)c(-c2cc(Nc3ccc(N4CCC(O)CC4)cn3)c3c(=O)[nH]ccc3n2)c1` [I-42, 2-(2-fluoro-5-methoxyphenyl)-4-((5-(4-hydroxypiperidin-1-yl)pyridin-2-yl)amino)-1,6-naphthyridin-5(6H)-one], 100 to 1000 nM.
With `O=c1[nH]ccc2nc(-c3cc(C4CC4)ccc3F)cc(Nc3ccc(N4CCC(O)CC4)cn3)c12` [I-43, 2-(5-cyclopropyl-2-fluoro-phenyl)-4-[[5-(4-hydroxy-1-piperidyl)-2-pyridyl]amino]-6H-1,6-naphthyridin-5-one] the figure was no more than 100 nM.
As for `O=c1[nH]ccc2nccc(Nc3ccc(N4CCC(O)CC4)cn3)c12` [I-44, 4-[[5-(4-hydroxy-1-piperidyl)-2-pyridyl]amino]-6H-1,6-naphthyridin-5-one], the IC50 was no more than 100 nM.
Turning to `N#Cc1ccc(F)c(-c2cc(Nc3ccc(N4CCC(O)CC4)cn3)c3c(=O)[nH]ccc3n2)c1` [I-45, 4-fluoro-3-[4-[[5-(4-hydroxy-1-piperidyl)-2-pyridyl]amino]-5-oxo-6H-1,6-naphthyridin-2-yl] benzonitrile], the IC50 is no more than 100 nM.
Take `CCNC(=O)C(C)(C)c1ccc(Nc2cc(-c3c(F)cccc3F)nc3cc[nH]c(=O)c23)nc1` [I-46, 2-[6-[[2-(2,6-difluoro-phenyl)-5-oxo-6H-1,6-naphthyridin-4-yl]amino]-3-pyridyl]-N-ethyl-2-methyl-propanamide]: the IC50 was in the range of 100 to 1000 nM.
Next, `CC(=O)c1cc(Nc2ccc(N3CCC(O)CC3)cn2)c2c(=O)[nH]ccc2n1` [I-47, 2-acetyl-4-[[5-(4-hydroxy-1-piperidyl)-2-pyridyl]amino]-6H-1,6-naphthyridin-5-one]: no more than 100 nM; `CC(C)c1ccc(F)c(-c2cc(Nc3ccc(N4CCC(O)CC4)cn3)c3c(=O)[nH]ccc3n2)c1` [I-48, 2-(2-fluoro-5-isopropyl-phenyl)-4-[[5-(4-hydroxy-1-piperidyl)-2-pyridyl]amino]-6H-1,6-naphthyridin-5-one]: 100 to 1000 nM; `CCc1c[nH]c(=O)c2c(Nc3ccc(N4CCC(O)CC4)cn3)cc(-c3c(F)cccc3F)nc12` [I-49, 2-(2,6-difluorophenyl)-8-ethyl-4-((5-(4-hydroxypiperidin-1-yl)pyridin-2-yl)amino)-1,6-naphthyridin-5(6H)-one]: 100 to 1000 nM.
With `O=c1[nH]ccc2nc(N3CCCC(O)C3)cc(Nc3ccc(N4CCC(O)CC4)cn3)c12` (stereo not drawn) [I-50, 2-(3-hydroxy-1-piperidyl)-4-[[5-(4-hydroxy-1-piperidyl)-2-pyridyl]amino]-6H-1,6-naphthyridin-5-one] the figure was 100 to 1000 nM; with `NC(=O)c1ccc(F)c(-c2cc(Nc3ccc(N4CCC(O)CC4)cn3)c3c(=O)[nH]ccc3n2)c1` [I-51, 4-fluoro-3-[4-[[5-(4-hydroxy-1-piperidyl)-2-pyridyl]amino]-5-oxo-6H-1,6-naphthyridin-2-yl]benzamide], 100 to 1000 nM.
Next, `CCN(C)C(=O)C(C)(C)c1ccc(Nc2cc(-c3c(F)cccc3F)nc3cc[nH]c(=O)c23)nc1` [I-52, 2-[6-[[2-(2,6-difluoro-phenyl)-5-oxo-6H-1,6-naphthyridin-4-yl]amino]-3-pyridyl]-N-ethyl-N,2-dimethyl-propanamide]: 100 to 1000 nM; `CCOC(=O)C(C)(C)c1ccc(Nc2cc(-c3c(F)cccc3F)nc3cc[nH]c(=O)c23)nc1` [I-53, ethyl 2-[6-[[2-(2,6-difluoro-phenyl)-5-oxo-6H-1,6-naphthyridin-4-yl]amino]-3-pyridyl]-2-methyl-propanoate]: no more than 100 nM; `CC1(Cc2cc(Nc3ccc(N4CCC(O)CC4)cn3)c3c(=O)[nH]ccc3n2)COC1` [I-54, 4-[[5-(4-hydroxy-1-piperidyl)-2-pyridyl]amino]-2-[(3-methyl-oxetan-3-yl)methyl]-6H-1,6-naphthyridin-5-one]: 100 to 1000 nM.
As for `COc1cc(F)c(-c2cc(Nc3ccc(N4CCC(O)CC4)cn3)c3c(=O)[nH]ccc3n2)cc1C` [I-55, 2-(2-fluoro-4-methoxy-5-methyl-phenyl)-4-[[5-(4-hydroxy-1-piperidyl)-2-pyridyl]amino]-6H-1,6-naphthyridin-5-one], the half-inhibitory concentration (IC50) is 100 to 1000 nM.
Consider `O=c1[nH]cc(-c2ccccc2)c2nc(-c3c(F)cccc3F)cc(Nc3ccc(N4CCC(O)CC4)cn3)c12` [I-56], for which the IC50 is greater than 1000 nM.
With `CC(C)c1cc(Nc2ccc(N3CCN(C)CC3)cn2)c2c(=O)[nH]ccc2n1` [I-57, 2-isopropyl-4-[[5-(4-methyl-piperazin-1-yl)-2-pyridyl]amino]-6H-1,6-naphthyridin-5-one] the figure was no more than 100 nM; with `O=C(Nc1ccc(-c2cc(Nc3ccc(N4CCC(O)CC4)cn3)c3c(=O)[nH]ccc3n2)c(F)c1)C1CC1` [I-58, N-[3-fluoro-4-[4-[[5-(4-hydroxy-1-piperidyl)-2-pyridyl]amino]-5-oxo-6H-1,6-naphthyridin-2-yl]phenyl] cyclopropane-carboxamide], no more than 100 nM.
With `CC(C)c1cc(Nc2ccc(N3CCC(O)CC3)cn2)c2c(=O)[nH]cnc2n1` [I-59, 5-[[5-(4-hydroxy-1-piperidyl)-2-pyridyl]amino]-7-isopropyl-3H-pyrido[2,3-d]pyrimidin-4-one] the figure was 100 to 1000 nM; with `CCCc1cc(Nc2ccc(N3CCC(O)CC3)cn2)c2c(=O)[nH]cnc2n1` [I-60, 5-[[5-(4-hydroxy-1-piperidyl)-2-pyridyl]amino]-7-propyl-3H-pyrido[2,3-d]pyrimidin-4-one], 100 to 1000 nM.
In the case of `O=c1[nH]ccc2nc(-c3ccc(OCc4ccncc4)cc3F)cc(Nc3ccc(N4CCC(O)CC4)cn3)c12` [I-61, 2-[2-fluoro-4-(4-pyridyl-methoxy)phenyl]-4-[[5-(4-hydroxy-1-piperidyl)-2-pyridyl]amino]-6H-1,6-naphthyridin-5-one], the half-maximal inhibitory concentration (IC50) was in the range of 100 to 1000 nM.
`CN(C)C(=O)c1ccc(-c2cc(Nc3ccc(N4CCC(O)CC4)cn3)c3c(=O)[nH]ccc3n2)c(F)c1` [I-62, 3-fluoro-4-[4-[[5-(4-hydroxy-1-piperidyl)-2-pyridyl]amino]-5-oxo-6H-1,6-naphthyridin-2-yl]-N,N-dimethyl-benzamdie]: the IC50 lay within 100 to 1000 nM.
For the molecule `CC(=O)N1CCC(c2cc(Nc3ccc(N4CCC(O)CC4)cn3)c3c(=O)[nH]ccc3n2)CC1` [I-63, 2-(1-acetyl-4-piperidyl)-4-[[5-(4-hydroxy-1-piperidyl)-2-pyridyl]amino]-6H-1,6-naphthyridin-5-one], the IC50 was in the range of 100 to 1000 nM.
